# Literature values, collected in JP2007126392A, “タンパク質のリフォールディング剤” (Sanyo Chemical Industries Ltd, priority 2005, dated 2007).
# Conditions: first acid dissociation constant (pKa1) where several protons dissociate
structure (smiles),measurement,value
O[Si](O)(O)O [ケイ酸],pKa,9.86
